ChEMBL document CHEMBL5678818, “Discovery of potent SOS1 inhibitors that block RAS activation via disruption of the RAS-SOS1 interaction” (Proc Natl Acad Sci U S A, 2019)

Legend:
[1] = target: Tyrosine-protein kinase receptor UFO (Homo sapiens) (UniProt P30530); test: Inhibition of AXL (unknown origin) assessed as residual activity at 1000 nM by KINOMEscan analysis relative to control
[2] = target: RAC-alpha serine/threonine-protein kinase (Homo sapiens) (UniProt P31749); test: Inhibition of AKT1 (unknown origin) assessed as residual activity at 1000 nM by KINOMEscan analysis relative to control
[3] = target: Serine/threonine-protein kinase MARK1 (Homo sapiens) (UniProt Q9P0L2); test: Inhibition of MARK1 (unknown origin) assessed as residual activity at 1000 nM by KINOMEscan analysis relative to control
[4] = target: Rho-associated protein kinase 1 (Homo sapiens) (UniProt Q13464); test: Inhibition of ROCK1 (unknown origin) assessed as residual activity at 1000 nM by KINOMEscan analysis relative to control
[5] = system: Proto-oncogene tyrosine-protein kinase receptor Ret (Homo sapiens), P07949 [V804L]; test: Inhibition of RET V804L mutant (unknown origin) assessed as residual activity at 1000 nM by KINOMEscan analysis relative to control
[6] = target: T1, Myosin-IIIb (Homo sapiens) (UniProt Q8WXR4); test: Inhibition of MYO3B (unknown origin) assessed as residual activity at 1000 nM by KINOMEscan analysis relative to control
T1 sequence (whole entry): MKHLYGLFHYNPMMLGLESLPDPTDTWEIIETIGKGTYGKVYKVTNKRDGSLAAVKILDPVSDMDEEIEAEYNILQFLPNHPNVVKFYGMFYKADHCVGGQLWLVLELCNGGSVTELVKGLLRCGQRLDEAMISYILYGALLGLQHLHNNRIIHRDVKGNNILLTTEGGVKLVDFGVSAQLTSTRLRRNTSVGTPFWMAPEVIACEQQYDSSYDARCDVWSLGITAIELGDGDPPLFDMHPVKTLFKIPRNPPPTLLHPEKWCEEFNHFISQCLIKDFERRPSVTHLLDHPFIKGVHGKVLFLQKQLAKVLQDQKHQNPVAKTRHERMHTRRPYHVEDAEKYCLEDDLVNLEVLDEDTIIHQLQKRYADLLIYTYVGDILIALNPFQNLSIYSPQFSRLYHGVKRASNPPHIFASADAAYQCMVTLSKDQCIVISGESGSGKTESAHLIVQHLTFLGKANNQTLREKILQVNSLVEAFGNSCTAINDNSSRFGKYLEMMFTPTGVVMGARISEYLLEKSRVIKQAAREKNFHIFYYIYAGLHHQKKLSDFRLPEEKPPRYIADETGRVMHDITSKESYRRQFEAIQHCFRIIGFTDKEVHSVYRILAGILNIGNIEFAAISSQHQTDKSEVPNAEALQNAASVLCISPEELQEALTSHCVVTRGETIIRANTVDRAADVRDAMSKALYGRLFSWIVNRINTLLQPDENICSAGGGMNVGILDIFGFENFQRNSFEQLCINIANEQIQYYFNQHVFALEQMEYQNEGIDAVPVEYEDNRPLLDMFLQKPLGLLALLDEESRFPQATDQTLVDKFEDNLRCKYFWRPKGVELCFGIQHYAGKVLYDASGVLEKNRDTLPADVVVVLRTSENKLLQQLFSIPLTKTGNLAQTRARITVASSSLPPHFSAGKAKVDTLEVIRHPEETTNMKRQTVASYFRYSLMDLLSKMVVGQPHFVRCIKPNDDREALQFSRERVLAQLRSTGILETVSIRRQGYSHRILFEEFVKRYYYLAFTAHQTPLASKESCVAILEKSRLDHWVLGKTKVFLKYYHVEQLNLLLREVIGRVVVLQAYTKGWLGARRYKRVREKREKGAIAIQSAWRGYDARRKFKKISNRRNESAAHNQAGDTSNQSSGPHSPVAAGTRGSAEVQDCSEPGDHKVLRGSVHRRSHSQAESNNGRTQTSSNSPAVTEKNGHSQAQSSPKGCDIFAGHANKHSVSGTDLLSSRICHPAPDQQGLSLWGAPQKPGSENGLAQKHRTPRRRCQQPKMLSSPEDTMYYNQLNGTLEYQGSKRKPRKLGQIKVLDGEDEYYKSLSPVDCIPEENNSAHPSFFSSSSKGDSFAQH

[7] = target: T2, Activin receptor type-1B (Homo sapiens) (UniProt P36896); test: Inhibition of ACVR1B (unknown origin) assessed as residual activity at 1000 nM by KINOMEscan analysis relative to control
T2 sequence (whole entry): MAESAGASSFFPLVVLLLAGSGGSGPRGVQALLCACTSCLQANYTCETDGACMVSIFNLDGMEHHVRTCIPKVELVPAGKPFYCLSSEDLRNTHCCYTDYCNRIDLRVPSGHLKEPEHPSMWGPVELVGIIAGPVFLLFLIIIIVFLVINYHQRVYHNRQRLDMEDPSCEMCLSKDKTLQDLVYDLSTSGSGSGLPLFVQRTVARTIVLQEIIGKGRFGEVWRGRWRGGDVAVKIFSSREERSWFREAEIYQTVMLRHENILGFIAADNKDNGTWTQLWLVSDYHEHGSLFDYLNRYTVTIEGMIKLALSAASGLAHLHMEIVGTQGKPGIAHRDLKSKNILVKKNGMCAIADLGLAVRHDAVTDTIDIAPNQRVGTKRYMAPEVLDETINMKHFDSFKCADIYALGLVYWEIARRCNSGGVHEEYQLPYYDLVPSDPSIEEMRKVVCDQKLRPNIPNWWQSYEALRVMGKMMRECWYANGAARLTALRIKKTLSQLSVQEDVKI

[8] = system: Tyrosine-protein kinase ABL1 (Homo sapiens), P00519 [F317L]; test: Inhibition of phosphorylated ABL1 F317L mutant (unknown origin) assessed as residual activity at 1000 nM by KINOMEscan analysis relative to control
[9] = system: Tyrosine-protein kinase ABL1 (Homo sapiens), P00519 [Q252H]; test: Inhibition of nonphosphorylated ABL1 Q252H mutant (unknown origin) assessed as residual activity at 1000 nM by KINOMEscan analysis relative to control
[10] = target: Cyclin-dependent kinase-like 3 (Homo sapiens) (UniProt Q8IVW4); test: Inhibition of CDKL3 (unknown origin) assessed as residual activity at 1000 nM by KINOMEscan analysis relative to control
[11] = target: Cyclin-dependent kinase 11B (Homo sapiens) (UniProt P21127); test: Inhibition of CDC2L1 (unknown origin) assessed as residual activity at 1000 nM by KINOMEscan analysis relative to control
[12] = target: Serine/threonine-protein kinase MRCK gamma (Homo sapiens) (UniProt Q6DT37); test: Inhibition of DMPK2 (unknown origin) assessed as residual activity at 1000 nM by KINOMEscan analysis relative to control
Serine/threonine-protein kinase MRCK gamma (Homo sapiens), sequence (Q6DT37 whole entry): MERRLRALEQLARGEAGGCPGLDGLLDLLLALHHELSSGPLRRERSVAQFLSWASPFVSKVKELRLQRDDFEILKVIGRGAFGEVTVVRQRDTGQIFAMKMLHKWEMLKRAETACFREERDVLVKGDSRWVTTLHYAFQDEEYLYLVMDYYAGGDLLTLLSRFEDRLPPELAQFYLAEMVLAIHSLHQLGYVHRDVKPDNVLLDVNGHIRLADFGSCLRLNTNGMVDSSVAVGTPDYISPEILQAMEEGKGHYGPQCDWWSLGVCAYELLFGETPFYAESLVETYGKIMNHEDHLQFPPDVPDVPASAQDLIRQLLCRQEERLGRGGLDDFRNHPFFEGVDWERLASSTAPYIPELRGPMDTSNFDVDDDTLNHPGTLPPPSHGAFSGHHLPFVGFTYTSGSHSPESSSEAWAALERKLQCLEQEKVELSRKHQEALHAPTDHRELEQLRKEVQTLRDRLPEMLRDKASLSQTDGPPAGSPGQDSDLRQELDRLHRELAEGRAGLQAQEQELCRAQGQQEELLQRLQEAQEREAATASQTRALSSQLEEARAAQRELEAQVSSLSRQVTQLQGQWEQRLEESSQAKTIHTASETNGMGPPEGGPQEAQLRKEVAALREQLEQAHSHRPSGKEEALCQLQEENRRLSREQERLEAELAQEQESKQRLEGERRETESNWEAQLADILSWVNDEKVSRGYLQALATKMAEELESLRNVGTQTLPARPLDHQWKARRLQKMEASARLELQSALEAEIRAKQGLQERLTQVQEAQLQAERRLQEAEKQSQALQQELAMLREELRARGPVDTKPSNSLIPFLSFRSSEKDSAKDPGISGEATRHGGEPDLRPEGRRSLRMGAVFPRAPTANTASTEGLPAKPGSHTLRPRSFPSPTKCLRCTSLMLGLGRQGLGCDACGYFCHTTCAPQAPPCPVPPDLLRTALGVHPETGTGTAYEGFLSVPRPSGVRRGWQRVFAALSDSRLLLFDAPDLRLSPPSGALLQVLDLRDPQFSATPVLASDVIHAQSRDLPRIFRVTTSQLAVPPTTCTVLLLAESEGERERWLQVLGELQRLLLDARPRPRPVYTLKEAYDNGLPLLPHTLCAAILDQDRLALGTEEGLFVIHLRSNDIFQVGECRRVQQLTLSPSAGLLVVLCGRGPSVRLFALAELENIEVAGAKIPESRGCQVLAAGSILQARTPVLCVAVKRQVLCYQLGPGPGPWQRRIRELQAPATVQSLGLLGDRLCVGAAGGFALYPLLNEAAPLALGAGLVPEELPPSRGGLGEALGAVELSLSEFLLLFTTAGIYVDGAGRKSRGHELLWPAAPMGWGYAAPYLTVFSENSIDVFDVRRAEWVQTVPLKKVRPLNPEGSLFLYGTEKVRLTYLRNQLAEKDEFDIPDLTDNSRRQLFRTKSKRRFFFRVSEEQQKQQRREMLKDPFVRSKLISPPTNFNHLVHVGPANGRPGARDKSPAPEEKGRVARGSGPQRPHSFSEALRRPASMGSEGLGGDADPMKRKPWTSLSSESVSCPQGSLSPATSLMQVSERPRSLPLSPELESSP

Rho-associated protein kinase 1 (Homo sapiens), sequence (Q13464 2-1354 limits assumed): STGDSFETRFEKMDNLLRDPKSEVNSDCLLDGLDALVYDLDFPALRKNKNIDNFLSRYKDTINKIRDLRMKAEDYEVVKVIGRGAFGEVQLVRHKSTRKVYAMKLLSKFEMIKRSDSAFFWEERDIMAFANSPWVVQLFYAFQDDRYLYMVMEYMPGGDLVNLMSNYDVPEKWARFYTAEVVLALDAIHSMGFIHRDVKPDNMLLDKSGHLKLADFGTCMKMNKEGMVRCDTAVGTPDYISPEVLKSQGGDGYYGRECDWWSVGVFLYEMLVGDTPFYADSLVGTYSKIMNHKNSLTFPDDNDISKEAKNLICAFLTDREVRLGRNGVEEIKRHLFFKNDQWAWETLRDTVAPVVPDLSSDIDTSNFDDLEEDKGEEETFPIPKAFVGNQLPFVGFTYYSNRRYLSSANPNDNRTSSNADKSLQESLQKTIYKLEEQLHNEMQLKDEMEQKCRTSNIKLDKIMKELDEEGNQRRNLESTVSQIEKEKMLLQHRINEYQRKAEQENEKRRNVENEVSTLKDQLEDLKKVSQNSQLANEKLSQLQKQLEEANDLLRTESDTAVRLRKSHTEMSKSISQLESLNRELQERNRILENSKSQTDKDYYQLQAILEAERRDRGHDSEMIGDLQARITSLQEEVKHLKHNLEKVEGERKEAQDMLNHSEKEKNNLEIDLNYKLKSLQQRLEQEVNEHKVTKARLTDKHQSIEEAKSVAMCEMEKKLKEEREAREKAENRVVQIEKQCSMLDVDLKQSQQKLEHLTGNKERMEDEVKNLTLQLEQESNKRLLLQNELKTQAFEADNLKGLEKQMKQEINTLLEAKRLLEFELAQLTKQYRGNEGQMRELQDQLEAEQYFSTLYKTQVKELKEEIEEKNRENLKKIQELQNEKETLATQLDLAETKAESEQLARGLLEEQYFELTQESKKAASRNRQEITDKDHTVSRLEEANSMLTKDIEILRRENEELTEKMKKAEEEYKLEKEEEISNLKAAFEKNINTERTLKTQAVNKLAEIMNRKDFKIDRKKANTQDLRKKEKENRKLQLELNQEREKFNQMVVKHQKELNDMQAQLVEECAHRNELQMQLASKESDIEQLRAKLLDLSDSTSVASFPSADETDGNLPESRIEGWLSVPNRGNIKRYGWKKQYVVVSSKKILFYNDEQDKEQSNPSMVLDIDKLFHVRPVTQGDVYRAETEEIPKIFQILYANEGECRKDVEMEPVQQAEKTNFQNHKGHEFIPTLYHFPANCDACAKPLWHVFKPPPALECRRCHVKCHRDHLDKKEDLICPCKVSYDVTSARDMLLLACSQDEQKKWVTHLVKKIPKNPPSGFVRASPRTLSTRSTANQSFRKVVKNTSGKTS
Cyclin-dependent kinase 11B (Homo sapiens), sequence (P21127 whole entry): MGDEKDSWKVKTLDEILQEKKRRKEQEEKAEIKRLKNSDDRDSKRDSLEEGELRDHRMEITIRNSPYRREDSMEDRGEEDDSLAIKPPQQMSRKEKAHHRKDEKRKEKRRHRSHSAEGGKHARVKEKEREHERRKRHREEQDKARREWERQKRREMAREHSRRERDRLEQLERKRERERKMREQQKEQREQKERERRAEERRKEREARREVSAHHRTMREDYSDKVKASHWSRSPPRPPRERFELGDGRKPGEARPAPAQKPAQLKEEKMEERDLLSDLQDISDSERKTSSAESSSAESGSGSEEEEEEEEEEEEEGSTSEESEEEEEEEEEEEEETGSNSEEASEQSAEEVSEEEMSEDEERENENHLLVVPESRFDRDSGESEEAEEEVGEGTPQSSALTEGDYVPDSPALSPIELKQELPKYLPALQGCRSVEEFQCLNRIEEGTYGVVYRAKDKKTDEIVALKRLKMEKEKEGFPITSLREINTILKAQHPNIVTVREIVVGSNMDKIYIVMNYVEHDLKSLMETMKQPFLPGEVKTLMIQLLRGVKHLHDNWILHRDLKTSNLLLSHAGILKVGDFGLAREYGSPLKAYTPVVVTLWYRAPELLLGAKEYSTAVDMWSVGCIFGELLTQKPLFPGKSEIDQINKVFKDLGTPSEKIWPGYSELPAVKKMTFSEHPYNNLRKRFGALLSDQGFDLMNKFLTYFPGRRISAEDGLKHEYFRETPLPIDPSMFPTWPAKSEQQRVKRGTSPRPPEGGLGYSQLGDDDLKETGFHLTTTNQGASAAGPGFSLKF
Serine/threonine-protein kinase MARK1 (Homo sapiens), sequence (Q9P0L2 whole entry, looked up): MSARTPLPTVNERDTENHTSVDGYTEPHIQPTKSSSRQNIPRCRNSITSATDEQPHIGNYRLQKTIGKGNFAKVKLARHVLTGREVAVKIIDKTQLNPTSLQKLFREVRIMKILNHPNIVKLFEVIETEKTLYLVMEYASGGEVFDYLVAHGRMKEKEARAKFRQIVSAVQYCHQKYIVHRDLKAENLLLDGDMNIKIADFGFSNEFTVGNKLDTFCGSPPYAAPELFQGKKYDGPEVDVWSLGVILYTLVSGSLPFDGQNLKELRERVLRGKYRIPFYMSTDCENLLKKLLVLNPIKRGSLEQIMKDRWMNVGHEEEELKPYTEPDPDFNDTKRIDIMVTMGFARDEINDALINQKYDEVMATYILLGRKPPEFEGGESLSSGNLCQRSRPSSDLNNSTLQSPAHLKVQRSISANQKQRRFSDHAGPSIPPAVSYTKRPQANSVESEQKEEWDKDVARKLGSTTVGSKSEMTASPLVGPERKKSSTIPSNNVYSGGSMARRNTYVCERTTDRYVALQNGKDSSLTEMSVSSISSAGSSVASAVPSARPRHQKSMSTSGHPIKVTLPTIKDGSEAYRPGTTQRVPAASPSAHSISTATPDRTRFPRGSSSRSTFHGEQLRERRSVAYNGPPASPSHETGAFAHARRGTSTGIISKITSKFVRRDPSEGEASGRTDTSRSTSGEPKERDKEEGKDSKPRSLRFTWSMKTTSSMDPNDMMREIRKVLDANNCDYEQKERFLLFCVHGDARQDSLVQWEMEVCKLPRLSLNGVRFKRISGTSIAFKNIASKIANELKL
RAC-alpha serine/threonine-protein kinase (Homo sapiens), sequence (P31749 whole entry): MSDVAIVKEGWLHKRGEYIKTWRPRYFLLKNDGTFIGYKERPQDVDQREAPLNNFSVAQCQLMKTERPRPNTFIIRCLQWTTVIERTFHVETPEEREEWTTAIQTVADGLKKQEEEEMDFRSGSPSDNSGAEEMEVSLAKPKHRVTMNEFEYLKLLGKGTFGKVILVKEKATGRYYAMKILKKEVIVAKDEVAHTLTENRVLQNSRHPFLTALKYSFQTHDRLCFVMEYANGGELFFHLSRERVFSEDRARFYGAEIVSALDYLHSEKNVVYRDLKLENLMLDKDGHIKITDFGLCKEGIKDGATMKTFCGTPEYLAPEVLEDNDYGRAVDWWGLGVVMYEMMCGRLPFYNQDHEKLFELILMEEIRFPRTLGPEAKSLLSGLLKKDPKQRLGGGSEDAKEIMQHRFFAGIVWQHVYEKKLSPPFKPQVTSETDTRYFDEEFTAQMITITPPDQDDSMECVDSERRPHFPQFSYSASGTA

Compound | Activity [1] | Activity [2] | Activity [3] | Activity [4] | Activity [5] | Activity [6] | Activity [7] | Activity [8] | Activity [9] | Activity [10] | Activity [11] | Activity [12]
COc1cc2nc(C)nc(N[C@H](C)c3cccc(-c4cn[nH]c4)c3)c2cc1OC | 93% | 82% | 100% | 96% | 65% | 89% | 100% | 92% | 45% | 87% | 94% | 100%
COc1cc2ncnc(N[C@H](C)c3cccc4ccccc34)c2cc1OC | 90% | 87% | 73% | 88% | 100% | 88% | 100% | 89% | 100% | 84% | 83% | 93%
